Structures are written as SMILES.

Type in all cases: cell-based
The test system of assay [1] is nifHpro::luciferase Azotobacter vinelandii reporter line. Briefly: Nitrogenase (nifH) activity with nifHpro::luciferase Azotobacter vinelandii reporter line. The following applies: 10 μM to 0.001 μM in DMSO, 21 hours, over controls, n=9 experiments, FIG. 6. As for the experimental part: Gibson Assembly was used to clone the luciferase gene (ordered from IDT) into pE_Gm and LR into pVSP61 (plasmids provided by Doug Dahlbeck at Staskawicz Lab, UC Berkeley). Standard triparental mating was used with pRK600 (provided by Doug Dahlbeck at Staskawicz Lab, UC Berkeley) to obtain the final reporter strain of Azotobacter vinelandii transformed with reporter plasmid.
nifHpro::luciferase Azotobacter vinelandii were grown for 24 hours in 50 mL liquid Burks —N media (HiMedia Laboratories) with 1 ng/μL Kanamycin, shaking at 100 RPM under lights at ˜30° C. After 24 hours, supernatant was spun down 12000 G for two minutes to collect cells. After supernatant was removed, cells were washed with cleared Burks —N liquid media supernatant, resuspended, and centrifuged again at 12000 G. This process was repeated, for a total of two washes.
Resuspended cells were combined with Burks —N media with 1 ng/μL Kanamycin, to obtain a fresh culture at OD 0.1. 50 mL shake flasks were then inoculated with 5 mL of this culture, plus appropriate chemistry, in the scheme that follows. A stock solution of Quercetin was made in DMSO. […]
After 21 hours, 50 mL flasks were removed from the shaker. […] Plates were inserted into plate reader and luminescence of each well was analyzed.

Assay [2] deals with nifHpro::luciferase Azotobacter vinelandii reporter strain. Nature of the assay: nifHpro::luciferase bioreporter assay for nitrogen fixation. The following applies: 1 μM, 24 h, relative to control bacteria not contacted. As for the experimental part: Three hundred base pairs upstream of the ATG of the nifHDK of Azotobacter vinelandii (nifHipro) was cloned in frame, upstream of luciferase in pVSP61 (kanR). Azotobacter vinelandii (Lipman ATCC® BAA-1303) was transformed with the reporter plasmid with triparental mating, Transformants were selected for on nitrogen-free kanamycin plates and confirmed with PCR and sequencing.
Five milliliters of nifHpro::luciferase Bioreporter strain #171 was grown overnight in autoclaved, nitrogen-free medium (Burks, HiMedia M707) at starting OD600=0.02 with 1 ug/mL Kanamycin in sterile 50 mL flasks. Chemical treatments were dissolved in 100% EtOH and added at appropriate concentrations, keeping the volume constant. The solvent was no more than 2% of the final culture volume, and solvent only controls were included in each experiment.
After 24 h, the growth density each culture was read in a clear, flat-bottomed microplate by adding 180 μl to each well (flasks were measured in triplicate) and measuring absorbance at 600 nm in a microplate reader. […]
The luminescence of each well was read on an iD3 plate reader (Molecular Devices). Luminescence of each well (reported as RLU, Relative Light Unit) was divided by its OD600 in order to adjust for culture density.

Assay [3] concerns soil's native microbial community. Briefly: Phosphate solubilization in soil consortia (soil as inoculum in NBRIP media). The following applies: relative to soil not contacted with QC. An excerpt: To determine if a test compound, QC, alters phosphate solubilization in a soil's native microbial community, dried and sieved soil was used as a bacterial inoculum in NBRIP media with and without QC.

As to `O=c1c(O)c(-c2ccc(O)c(O)c2)oc2cc(O)cc(O)c12` [Formula Id], in assay [1], the “activation of nifHpro::luciferase bioreporter (nitrogenase gene expression)” value is listed as “activated”.

Regarding `O=c1c(O)c(-c2ccc(O)c(O)c2)oc2cc(O)cc(O)c12` [QC, quercetin], in assay [2], the “luminescence (nitrogen fixation)” value is given as “significant increase”. Further, the “amount of detectable orthophosphate in the growth media of soil-inoculated cultures” value in assay [3] is recorded as “increased”.
